In patent EP4603105A1, “PHARMACEUTICAL COMPOSITION CONTAINING CYCLIC COMPOUND HAVING SELECTIVE KRAS INHIBITORY EFFECT AGAINST HRAS AND NRAS” (CHUGAI SEIYAKU KABUSHIKI KAISHA, priority 2022, dated 2024):
pIC50, pKd: −log10 of the molar value.

How the values were obtained:
[1] = molecular target: GDP-bound NRAS wild-type protein (Homo sapiens, UniProt P01111); test: Binding to NRAS by surface plasmon resonance (SPR), KD and KD ratio to KRAS; conditions: ratio of KD for GDP-bound NRAS wild-type protein to KD for KRAS
Chain of GDP-bound NRAS wild-type protein (P01111 whole entry): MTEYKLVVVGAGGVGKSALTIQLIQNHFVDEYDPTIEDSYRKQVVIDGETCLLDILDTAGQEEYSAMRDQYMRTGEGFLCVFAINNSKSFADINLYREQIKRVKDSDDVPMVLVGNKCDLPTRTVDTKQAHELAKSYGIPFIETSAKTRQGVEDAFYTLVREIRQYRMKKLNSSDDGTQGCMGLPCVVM
Outline: (§1)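 Each cycle, GDP-bound biotin-Avi RAS was captured (~100–300 RU), compound concentrations were injected low to high for 75 s each at 100 µL/min, then the chip was regenerated. Buffer: HBS pH 7.4, 10 mM MgCl2, 10 µM GDP, 1 mM DTT, 4% DMSO; 30°C. KD from a 1:1 binding model.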

[2] = tested on: human gastric cancer strain SNU-1; format: cell-based
Method: (§2) A test compound was dispensed into a U-bottom 384-well plate as 40 nL serially diluted dimethyl sulfoxide solutions using a liquid handler Echo (LABCYTE). As for human gastric cancer strain SNU-1 (ATCC), a cell suspension was prepared so as to have 250 cells/40 µL in an RPMI-1640 medium (Sigma) supplemented with 10% fetal bovine serum (Sigma), a 2.5 g/L D-(+)-glucose solution, 10 mmol/L HEPES, and 1 mmol/L sodium pyruvate. This cell suspension was dispensed in an amount of 40 µL per well into a plate containing the test compound, and cultured at 37°C in a 5% carbon dioxide gas incubator. Seven days later, 20 µL of CellTiter-Glo (registered trademark) (Promega) was added to each well and luminescence was measured.

[3] = tested on: human bladder cancer strain UM-UC-3; format: cell-based
Method: as §2, with “human bladder” for “human gastric”, “strain UM-UC-3” for “strain SNU-1”, “an MEM” for “an RPMI-1640”, “medium (Nacalai Tesque)” for “medium (Sigma)”, “(Sigma), an MEM non-essential amino acids solution (100X),” for “(Sigma), a 2.5 g/L D-(+)-glucose solution, 10 mmol/L HEPES,”, “measured. […]” for “measured.”

[4] = tested on: human lung cancer strain NCI-H441; format: cell-based
Outline: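 Signal came from […] measured per well once the reagent was added. Beforehand, cells were cultured at 37°C and 5% carbon dioxide on a compound series serially diluted in dimethyl sulfoxide.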

[5] = molecular target: GDP-bound KRAS wild-type protein (Homo sapiens, UniProt P01116); test: Binding to KRAS by surface plasmon resonance (SPR), dissociation constant KD
Chain of GDP-bound KRAS wild-type protein (P01116 1-188 isoform P01116-2): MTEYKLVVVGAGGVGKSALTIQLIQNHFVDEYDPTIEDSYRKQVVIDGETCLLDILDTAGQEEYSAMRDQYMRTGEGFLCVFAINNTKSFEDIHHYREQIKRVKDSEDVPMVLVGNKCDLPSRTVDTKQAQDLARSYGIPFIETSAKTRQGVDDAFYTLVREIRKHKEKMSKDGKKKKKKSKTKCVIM
Outline: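 GDP-loaded biotinylated Avi-tag RAS proteins (E. coli-expressed) captured on a Biotin CAPture chip at ~100–300 RU; single-cycle kinetics at 30°C, 100 µL/min, 75 s injections of rising compound concentrations. HBS pH 7.4 running buffer with 1 mM DTT, 10 mM MgCl2, 10 µM GDP, 4% DMSO. KD from 1:1 binding fit.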

HRAS wild-type protein = HRAS wild-type protein (Homo sapiens, UniProt P01112); test: Binding to HRAS by surface plasmon resonance (SPR), KD and KD ratio to KRAS; conditions: ratio of KD for HRAS wild-type protein to KD for KRAS
Chain of HRAS wild-type protein (P01112 whole entry): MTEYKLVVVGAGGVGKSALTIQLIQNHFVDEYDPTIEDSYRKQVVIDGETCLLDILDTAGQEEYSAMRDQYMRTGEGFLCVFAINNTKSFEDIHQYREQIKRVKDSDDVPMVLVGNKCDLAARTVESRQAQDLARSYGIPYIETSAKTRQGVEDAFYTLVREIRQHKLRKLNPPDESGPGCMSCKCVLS
Outline: as §1

[6] = tested on: human gastric cancer strain GSU; format: cell-based
Method: as §2, with “GSU (Institute of Physical and Chemical Research),” for “SNU-1 (ATCC),”, “200” for “250”, “(Sigma).” for “(Sigma), a 2.5 g/L D-(+)-glucose solution, 10 mmol/L HEPES, and 1 mmol/L sodium pyruvate.”

[7] = tested on: human colorectal cancer strain GP2d; format: cell-based
Method: as §2, with “colorectal” for “gastric”, “GP2d (ECACC),” for “SNU-1 (ATCC),”, “500” for “250”, “a Dulbecco's modified Eagle” for “an RPMI-1640”, “medium” for “medium (Sigma)”, “(Sigma).” for “(Sigma), a 2.5 g/L D-(+)-glucose solution, 10 mmol/L HEPES, and 1 mmol/L sodium pyruvate.”

[8] = tested on: human pancreatic cancer strain KP4; format: cell-based
Method: as §2, with “pancreatic” for “gastric”, “KP4 (Institute of Physical and Chemical Research),” for “SNU-1 (ATCC),”, “500” for “250”, “a DMEM/Ham's F-12” for “an RPMI-1640”, “(Nacalai Tesque)” for “(Sigma)”, “(Sigma).” for “(Sigma), a 2.5 g/L D-(+)-glucose solution, 10 mmol/L HEPES, and 1 mmol/L sodium pyruvate.”

[9] = tested on: human ovarian cancer strain OV7; format: cell-based
Method: A test compound was dispensed into a U-bottom 384-well plate as 40 nL serially diluted dimethyl sulfoxide solutions using a liquid handler Echo (LABCYTE). As for human ovarian cancer strain OV7 (ECACC), a cell suspension was prepared so as to have 250 cells/40 µL in a DMEM/Ham's F-12 medium (Nacalai Tesque) supplemented with 5% fetal bovine serum (Sigma), 0.5 µg/mL hydrocortisone, and 10 µg/mL insulin. This cell suspension was dispensed in an amount of 40 µL per well into a plate containing the test compound, and cultured at 37°C in a 5% carbon dioxide gas incubator. Seven days later, 20 µL of CellTiter-Glo (registered trademark) (Promega) was added to each well and luminescence was measured.

Structure (SMILES) | pIC50 [2] | pIC50 [3] | pIC50 [4] | pKd ([5]; 1:1 binding model) | pIC50 [6] | pIC50 [7] | pIC50 [8] | pIC50 [9] | pKd ([5]; Single Cycle Kinetics) | NRAS /KRAS [1] | HRAS /KRAS (HRAS wild-type protein)
CCO[C@@H]1C[C@H]2C(=O)NC3(CC(C)(C)C3)C(=O)N(C)[C@@H](C3CCCC3)C(=O)N(C)[C@H](C(=O)N(C)C)CC(=O)N(C)[C@@H]([C@@H](C)OC)C(=O)N[C@@H]([C@@H](C)CC)C(=O)N(C)CC(=O)N(C)[C@H]3C/C=C\CCN(C3=O)[C@@H](Cc3ccc(C(F)(F)F)cc3)C(=O)N(C)CC(=O)N[C@@H](CCc3ccc(C(F)(F)F)c(Cl)c3)C(=O)N2C1 [PP3198, (2S,8S,12R,14S,20S,23S,27S,30S,36S,38Z)-8-[2-[3-chloro-4-(trifluoromethyl)phenyl]ethyl]-20-cyclopentyl-12-ethoxy-27-[(1R)-1-methoxyethyl]-N,N,3',3',4,19,22,26,32,35-decamethyl-30-[(1S)-1-methylpropyl]-3,6,9,15,18,21,25,28,31,34,42-undecaoxo-2-[[4-(trifluoromethyl)phenyl]methyl]spiro[1,4,7,10,16,19,22,26,29,32,35-undecazatricyclo[34.5.1.0^10,14]dotetracont-38-ene-17,1'-cyclobutane]-23-carboxamide] | 8.49 | 8.60 | 8.36 | 10.40 | 9.40 | 8.62 | 8.33 | 8.14 |  | A (a compound having 10 or more and less than 20 is denoted as A) | A (a compound having 10 or more and less than 20 is denoted as A)
C#CC[C@H]1C(=O)N[C@@H]([C@@H](C)CC)C(=O)N2CCC[C@H]2C(=O)N(C)[C@H]2C/C=C\CCN(C2=O)[C@@H](Cc2ccc(C)cc2)C(=O)N(C)CC(=O)N[C@@H](CCc2ccc(C(F)(F)F)c(OC)c2)C(=O)N2C[C@H](OCC)C[C@H]2C(=O)N(C)C2(CCC2)C(=O)N(C)[C@@H](C2CCCC2)C(=O)N(C)[C@H](C(=O)N(C)C)CC(=O)N1C [PP3255, (1S,4S,10S,13S,17S,20S,26S,28R,32S,38S,42Z)-20-cyclopentyl-28-ethoxy-32-[2-[3-methoxy-4-(trifluoromethyl)phenyl]ethyl]-N,N,2,14,18,21,24,36-octamethyl-10-[(1S)-1-methylpropyl]-3,9,12,15,19,22,25,31,34,37,45-undecaoxo-13-prop-2-ynyl-38-(p-tolylmethyl)spiro[2,8,11,14,18,21,24,30,33,36,39-undecazatetracyclo[37.5.1.0^4,8.0^26,30]pentatetracont-42-ene-23,1'-cyclobutane]-17-carboxamide] | 8.18 | 8.43 | 8.24 |  | 8.72 | 8.42 | 8.03 | 8.15 | 10.00 | A (a compound having 10 or more and less than 20 is denoted as A) | A (a compound having 10 or more and less than 20 is denoted as A)

The next compounds have a higher pIC50 [2] than those just listed; values first:

pIC50 [2] | pIC50 [3] | pIC50 [4] | pKd ([5]; 1:1 binding model) | pIC50 [6] | pIC50 [7] | pIC50 [8] | pIC50 [9] | pKd ([5]; Single Cycle Kinetics) | Structure (SMILES) | NRAS /KRAS [1] | HRAS /KRAS (HRAS wild-type protein)
8.62 | 9.22 | 8.36 |  | 9.30 | 9.15 | 8.40 | 8.80 | 10.72 | CCC[C@H]1C(=O)N[C@@H]([C@@H](C)CC)C(=O)N(C)CC(=O)N(C)[C@H]2C/C=C\CCN(C2=O)[C@@H](Cc2ccc(C)cc2)C(=O)N(C)CC(=O)N[C@@H](CCc2cc(F)c(C(F)(F)F)c(F)c2)C(=O)N2CC3(CC3)C[C@H]2C(=O)N(C)C2(CCC2)C(=O)N(C)[C@@H](C2CCCC2)C(=O)N(C)[C@H](C(=O)N(C)C)CC(=O)N1C [PP3327] | A (a compound having 10 or more and less than 20 is denoted as A) | A (a compound having 10 or more and less than 20 is denoted as A)
8.68 | 8.82 | 8.72 |  | 9.22 | 8.82 | 8.38 | 8.68 | 10.66 | C#CC[C@H]1C(=O)N[C@@H]([C@@H](C)CC)C(=O)N(C)CC(=O)N(C)[C@H]2C/C=C\CCN(C2=O)[C@@H](Cc2ccc(C)cc2)C(=O)N(C)CC(=O)N[C@@H](CCc2cc(F)c(C(F)(F)F)c(F)c2)C(=O)N2C[C@H](OCC)C[C@H]2C(=O)N(C)C2(CCC2)C(=O)N(C)[C@@H](C2CCCC2)C(=O)N(C)[C@H](C(=O)N(C)C)CC(=O)N1C [PP3238, (2S,8S,12R,14S,20S,23S,27S,30S,36S,38Z)-20-cyclopentyl-8-[2-[3,5-difluoro-4-(trifluoromethyl)phenyl]ethyl]-12-ethoxy-N,N,4,16,19,22,26,32,35-nonamethyl-30-[(1S)-1-methylpropyl]-3,6,9,15,18,21,25,28,31,34,42-undecaoxo-27-prop-2-ynyl-2-(p-tolylmethyl)spiro[1,4,7,10,16,19,22,26,29,32,35-undecazatricyclo[34.5.1.0^10,14]dotetracont-38-ene-17,1'-cyclobutane]-23-carboxamide] | A (a compound having 10 or more and less than 20 is denoted as A) | A (a compound having 10 or more and less than 20 is denoted as A)
8.70 | 9.15 | 8.80 |  | 9.40 | 8.96 | 8.49 | 8.66 | 10.59 | C#CC[C@H]1C(=O)N[C@@H]([C@@H](C)CC)C(=O)N(C)CC(=O)N(C)[C@H]2C/C=C\CCN(C2=O)[C@@H](Cc2ccc(C(F)(F)F)cc2)C(=O)N(C)CC(=O)N[C@@H](CCc2ccc(C(F)(F)F)c(Cl)c2)C(=O)N2C[C@H](OCC)C[C@H]2C(=O)N(C)C2(CCC2)C(=O)N(C)[C@@H](C2CCCC2)C(=O)N(C)[C@H](C(=O)N(C)C)CC(=O)N1C [PP3234, (2S,8S,12R,14S,20S,23S,27S,30S,36S,38Z)-8-[2-[3-chloro-4-(trifluoromethyl)phenyl]ethyl]-20-cyclopentyl-12-ethoxy-N,N,4,16,19,22,26,32,35-nonamethyl-30-[(1S)-1-methylpropyl]-3,6,9,15,18,21,25,28,31,34,42-undecaoxo-27-prop-2-ynyl-2-[[4-(trifluoromethyl)phenyl]methyl]spiro[1,4,7,10,16,19,22,26,29,32,35-undecazatricyclo[34.5.1.0^10,14]dotetracont-38-ene-17,1'-cyclobutane]-23-carboxamide] | A (a compound having 10 or more and less than 20 is denoted as A) | B (a compound having 3 or more and less than 10 is denoted as B)
